# In US6472418B1, “Non-peptide NK1 receptors antagonists” (Warner-Lambert Company, priority 1998, dated 2002):
# Target: T1, Human NK1 Receptor (Homo sapiens, UniProt P25103)
# T1 construct: endogenous in cells; host or cells: Human lymphoma IM9 cells (whole cells)
# Assay: In Vitro Human NK1 Receptor Binding Assay ([125I]Bolton-Hunter substance P displacement, IM9 cells)
# Conditions: Table 4; [125I]Bolton-Hunter substance P displacement, human IM9 cells; read-out: IC50 (nM) hNK1
# Procedure, shortened: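 Test compounds competed with 0.05-0.1 nM [125I]Bolton-Hunter substance P for binding to intact IM9 cells over 50 min at 21° C, pH 7.4 buffer with MnCl2 and peptidase inhibitors. […] [Sar9, Met(O2)11] substance P gave non-specific binding. Bound counts were measured after filtration and fitted iteratively.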
# T1 sequence (P25103 whole entry): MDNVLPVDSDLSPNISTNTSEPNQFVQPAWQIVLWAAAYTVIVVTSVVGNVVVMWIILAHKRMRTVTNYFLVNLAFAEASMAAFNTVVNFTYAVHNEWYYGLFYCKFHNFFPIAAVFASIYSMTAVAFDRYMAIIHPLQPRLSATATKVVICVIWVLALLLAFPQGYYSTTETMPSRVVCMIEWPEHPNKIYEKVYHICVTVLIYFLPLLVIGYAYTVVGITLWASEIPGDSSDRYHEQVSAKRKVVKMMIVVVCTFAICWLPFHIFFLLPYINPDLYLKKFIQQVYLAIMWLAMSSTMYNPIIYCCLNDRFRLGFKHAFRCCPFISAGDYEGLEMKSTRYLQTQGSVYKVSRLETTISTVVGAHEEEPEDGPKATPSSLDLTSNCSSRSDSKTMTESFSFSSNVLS
row,SMILES,IC50 [nM]
1,"CC(NC(=O)C(C)(Cc1c[nH]c2ccccc12)NCc1ccoc1)c1ccccc1 (stereo not shown) [compound 312, 2-[(Furan-3-ylmethyl)-amino]-3-(1H-indol-3-yl)-2-methyl-N-(1-phenyl-ethyl)-propionamide]",1820
2,"CC(NC(=O)C(C)(Cc1c[nH]c2ccccc12)NCc1ccco1)c1ccccc1 (stereo not shown) [compound 314, 2-[(Furan-2-ylmethyl)-amino]-3-(1H-indol-3-yl)-2-methyl-N-(1-phenyl-ethyl)-propionamide]",141
3,"CC(NC(=O)C(C)(Cc1c[nH]c2ccccc12)NCc1cnc2ccccc2c1)c1ccccc1 (stereo not shown) [compound 315, 3-(1H-Indol-3-yl)-2-methylN-(1-phenyl-ethyl)-2-[(quinolin-3-ylmethyl)-amino]-propionamide]",1070
4,"CC(NC(=O)C(C)(Cc1c[nH]c2ccccc12)NCc1nc2ccccc2[nH]1)c1ccccc1 (stereo not shown) [compound 316, 2-[(1H-Benzoimidazol-2-ylmethyl)-amino]-3-(1H-indol-3-yl)-2-methyl-N-(1-phenyl-ethyl)-propionamide]",> 10000
5,"COc1ccc2oc(CNC(C)(Cc3c[nH]c4ccccc34)C(=O)NC(C)c3ccccc3)cc2c1 (stereo not shown) [compound 317, 3-(1H-Indol-3-yl)-2-[(5-methoxy-benzofuran-2-ylmethyl)-amino]-2-methyl-N-(1-phenyl-ethyl)-propionamide]",> 10000
6,"CC(NC(=O)C(C)(Cc1c[nH]c2ccccc12)NCc1cncc2ccccc12)c1ccccc1 (stereo not shown) [compound 318, 3-(1H-Indol-3-yl)-2-[(isoquinolin-4-ylmethyl)-amino]-2-methyl-N-(1-phenyl-ethyl)-propionamide]",1600
7,"COc1ccc2cc(CNC(C)(Cc3c[nH]c4ccccc34)C(=O)NC(C)c3ccccc3)oc2c1 (stereo not shown) [compound 319, 3-(1H-Indol-3-yl)-2-[(6-methoxy-benzofuran-2-ylmethyl)-amino]-2-methyl-N-(1-phenyl-ethyl)-propionamide]",2100
8,"CC(NC(=O)C(C)(Cc1c[nH]c2ccccc12)NCc1cccnc1)c1ccccc1 (stereo not shown) [compound 320, 3-(1H-Indol-3-yl)-2-methyl-N-(1-phenyl-ethyl)-2-[(pyridin-3-ylmethyl)-amino]-propionamide]",5970
9,"CC(NC(=O)C(C)(Cc1c[nH]c2ccccc12)NCCNC(=O)CN1C(=O)c2ccccc2C1=O)c1ccccc1 (stereo not shown) [compound 321, 2-{2-[2-(1,3-Dioxo-1,3-dihydro-isoindol-2-yl)-acetylamino]-ethylamino}-3-(1H-indol-3-yl)-2-methyl-N-(1-phenyl-ethyl)-propionamide]",3040
10,"CC(NC(=O)C(C)(Cc1c[nH]c2ccccc12)NCC=Cc1ccco1)c1ccccc1 (stereo not shown) [compound 322, 2-(3-Furan-2-yl-allylamino)-3-(1H-indol-3-yl)-2-methyl-N-(1-phenyl-ethyl)-propionamide]",91
11,"CC(NC(=O)C(C)(Cc1c[nH]c2ccccc12)NCc1ccccc1OCc1ccccn1)c1ccccc1 (stereo not shown) [compound 323, 3-(1H-Indol-3-yl)-2-methyl-N-(1-phenyl-ethyl)-2-[2-(pyridin-2-ylmethoxy)-benzylamino]-propionamide]",3180
12,"CC(NC(=O)C(C)(Cc1c[nH]c2ccccc12)NCc1ccccc1OCc1cccnc1)c1ccccc1 (stereo not shown) [compound 324, 3-(1H-Indol-3-yl)-2-methyl-N-(1-phenyl-ethyl)-2-[2-(pyridin-3-ylmethoxy)-benzylamino]-propionamide]",2970
13,"CC(NC(=O)C(C)(Cc1c[nH]c2ccccc12)NCc1ccc(C=Cc2ccccc2)o1)c1ccccc1 (stereo not shown) [compound 325, 3-(1H-Indol-3-yl)-2-methyl-N-(1-phenyl-ethyl)-2-[(5-styryl-furan-2-ylmethyl)-amino]-propionamide]",72
14,"CNS(=O)(=O)c1cc(CNC(C)(Cc2c[nH]c3ccccc23)C(=O)NC(C)c2ccccc2)ccc1Cl (stereo not shown) [compound 326, 2-(4-Chloro-3-methylsulfamoyl-benzylamino)-3-(1H-indo1-3-yl)-2-methyl-N-(1-phenyl-ethyl)-propionamide]",4830
15,"CC(NC(=O)C(C)(Cc1c[nH]c2ccccc12)NCc1ccc(OCCCC(C)(C)C(=O)O)cc1)c1ccccc1 (stereo not shown) [compound 327, 5-(4-{[2-(1H-Indol-3-yl)-1-methyl-1-(1-phenyl-ethylcarbamoyl)-ethylamino]-methyl}-phenoxy)-2,2-dimethyl-pentanoic acid]",> 10000
16,"CC(NC(=O)C(C)(Cc1c[nH]c2ccccc12)NCc1cc2ccccc2o1)c1ccccc1 (stereo not shown) [compound 343, 2-[(Benzofuran-2-ylmethyl)-amino]-3-(1H-indol-3-yl)-2-methyl-N-(1-phenyl-ethyl)-propionamide]",13

# Second part, the compound after the results:
row,IC50 [nM],SMILES
1,> 10000,"CC(C)C=CCC1=CCC(CNC(C)(Cc2c[nH]c3ccccc23)C(=O)NC(C)c2ccccc2)CC1 (stereo not shown) [compound 328, 3-(1H-Indol-3-yl)-2-methyl-2-{[4-(4-methyl-pent-2-enyl)-cyclohex-3-enylmethyl]-amino}-N-(1-phenyl-ethyl)-propionamide]"
2,4190,"CCOC(=O)Nc1ccccc1CNC(C)(Cc1c[nH]c2ccccc12)C(=O)NC(C)c1ccccc1 (stereo not shown) [compound 329, (2-{[2-(1H-Indol-3-yl)-1-methyl-1-(1-phenyl-ethylcarbamoyl)-ethylamino]-methyl}-phenyl)-carbamic acid ethyl ester]"
3,1100,"CNS(=O)(=O)c1cc(Cl)ccc1CNC(C)(Cc1c[nH]c2ccccc12)C(=O)NC(C)c1ccccc1 (stereo not shown) [compound 330, 2-(4-Chloro-2-methylsulfamoyl-benzylamino)-3-(1H-indol-3-yl)-2-methyl-N-(1-phenyl-ethyl)-propionamide]"
4,> 10000,"CC(NC(=O)C(C)(Cc1c[nH]c2ccccc12)NCc1ccc(OCCN(C)C)cc1)c1ccccc1 (stereo not shown) [compound 331, 2-[4-(2-Dimethylamino-ethoxy)-benzylamino]-3-(1H-indol-3-yl)-2-methyl-N-(1-phenyl-ethyl)-propionamide]"
5,4940,"CC(NC(=O)C(C)(Cc1c[nH]c2ccccc12)NCC(Cc1ccccc1)c1ccccc1)c1ccccc1 (stereo not shown) [compound 332, 2-(2,3-Diphenyl-propylamino)-3-(1H-indol-3-yl)-2-methyl-N-(1-phenyl-ethyl)-propionamide]"
6,185,"CC(NC(=O)C(C)(Cc1c[nH]c2ccccc12)NCc1cccc(OCc2ccccc2)c1)c1ccccc1 (stereo not shown) [compound 344, 2-(3-Benzyloxy-benzylamino)-3-(1H-indol-3-yl)-2-methyl-N-(1-phenyl-ethyl)-propionamide]"
7,609,"CSc1ccc(CNC(C)(Cc2c[nH]c3ccccc23)C(=O)NC(C)c2ccccc2)cc1 (stereo not shown) [compound 345, 3-(1H-Indol-3-yl)-2-methyl-2-(4-methylsulfanyl-benzylamino)-N-(1-phenyl-ethyl)-propionamide]"
8,> 10000,"CC(NC(=O)C(C)(Cc1c[nH]c2ccccc12)NCc1c2ccccc2cc2ccccc12)c1ccccc1 (stereo not shown) [compound 346, 2-[(Anthracen-9-ylmethyl)-amino]-3-(1H-indol-3-yl)-2-methyl-N-(1-phenyl-ethyl)-propionamide]"
9,3380,"CC(NC(=O)C(C)(Cc1c[nH]c2ccccc12)NCc1ccc(Oc2ccccc2)cc1)c1ccccc1 (stereo not shown) [compound 347, 3-(1H-Indol-3-yl)-2-methyl-2-(4-phenoxy-benzylamino)-N-(1-phenyl-ethyl)-propionamide]"
10,5560,"CC(NC(=O)C(C)(Cc1c[nH]c2ccccc12)NCc1ccc(-c2ccccc2)cc1)c1ccccc1 (stereo not shown) [compound 348, 2-[(Biphenyl-4-ylmethyl)-amino]-3-(1H-indol-3-yl)-2-methyl-N-(1-phenyl-ethyl)-propionamide]"
11,356,"CC(NC(=O)C(C)(Cc1c[nH]c2ccccc12)NCc1ccc2c(c1)OCO2)c1ccccc1 (stereo not shown) [compound 349, 2-[(Benzo[1,3]dioxol-5-ylmethyl)-amino]-3-(1H-indol-3-yl)-2-methyl-N-(1-phenyl-ethyl)-propionamide]"
12,> 10000,"CC(NC(=O)C(C)(Cc1c[nH]c2ccccc12)NCc1ccccc1Sc1ccc(Cl)cc1)c1ccccc1 (stereo not shown) [compound 350, 2-[2-(4-Chloro-phenylsulfanyl)-benzylamino]-3-(1H-indol-3-yl)-2-methyl-N-(1-phenyl-ethyl)-propionamide]"
13,> 10000,"CC(NC(=O)C(C)(Cc1c[nH]c2ccccc12)NCc1ccc(C=Cc2ccccc2)cc1)c1ccccc1 (stereo not shown) [compound 351, 3-(1H-Indol-3-yl)-2-methyl-N-(1-phenyl-ethyl)-2-(4-styryl-benzylamino)-propionamide]"
14,2210,"CC=C(C)CCC=C(C)CNC(C)(Cc1c[nH]c2ccccc12)C(=O)NC(C)c1ccccc1 (stereo not shown) [compound 352, 2-(2,6-Dimethyl-octa-2,6-dienylamino)-3-(1H-indol-3-yl)-2-methyl-N-(1-phenyl-ethyl)-propionamide]"
15,13,"CC(NC(=O)C(C)(Cc1c[nH]c2ccccc12)NCc1ccc(-c2ccc([N+](=O)[O-])cc2)o1)c1ccccc1 (stereo not shown) [compound 353, 3-(1H-Indol-3-yl)-2-methyl-2-{[5-(4-nitro-phenyl)-furan-2-ylmethyl]-amino}-N-(1-phenyl-ethyl)-propionamide]"
16,1730,"CC(NC(=O)C(C)(Cc1c[nH]c2ccccc12)NCc1ccc2c(c1)Cc1ccccc1-2)c1ccccc1 (stereo not shown) [compound 354, 2-[(9H-Fluoren-2-ylmethyl)-amino]-3-(1H-indol-3-yl)-2-methyl-N-(1-phenyl-ethyl)-propionamide]"
17,1050,"CC(NC(=O)C(C)(Cc1c[nH]c2ccccc12)NCc1c[nH]c2ccccc12)c1ccccc1 (stereo not shown) [compound 355, 3-(1H-Indol-3-yl)-2-[(1H-indol-3-ylmethyl)-amino]-2-methyl-N-(1-phenyl-ethyl)-propionamide]"
18,> 10000,"CCCCCC(=Cc1ccccc1)CNC(C)(Cc1c[nH]c2ccccc12)C(=O)NC(C)c1ccccc1 (stereo not shown) [compound 356, 3-(1H-Indol-3-yl)-2-methyl-2-(2-pentyl-3-phenyl-allylamino)-N-(1-phenyl-ethyl)-propionamide]"
